The subject of one series is conscious rat. The series can be described thus: Antihypertensive evaluation (AHP3): aortic blood pressure and heart rate. The format is in vivo. As to conditions: lowest dose tested at which a >10% reduction in blood pressure for four consecutive hours is achieved; conscious rat; read-out: AHP3 BP LAD. An excerpt:
[…] EVALUATION (AHP3)
This test procedure is described in the following paragraphs.
A Method for the Direct Monitoring of Aortic Blood Pressure and Heart Rate from Conscious Rats
The continuous monitoring of pulsatile blood pressure (BP) from unrestrained conscious rats surgically equipped with polyethylene cannulas was accomplished by means of a computer assisted data capture scheme (CADCS). The absic elements of the methodology are the cannulation procedure and the CADCS.
Cannulation Procedure: Rats were anesthetized with Telazol (1:1 tiletamine HCI and zolazepam HCI); 20-40 mg/kg IM and the descending aorta exposed via a midline incision. Cannulas fabricated from polyethylene tubing were inserted into the aorta via an undersized puncture hole below the renal arteries. The puncture hole was made by a 23 G disposable needle with a section of the aorta clamped off above and below the puncture site. The cannulas, consisting of a PE100 (0.86 mm ID) body and a PE50 (0.58 mm ID) tip, were attached to a trocar, inserted through the psoas muscle, and passed subcutaneously along the midline of the back and externalized between the ears. The cannulas were anchored to the psoas muscle and between the scalulae (3-0 green braided suture). The midline incision was closed in two steps (muscle first, skin second) using continuous over-and over sutures (4-0 chronic). Each rat was then given penicillin 30,000 units subcutaneously (Penicillin G Procaine Sterile Suspension).
The rats were fitted with a harness-spring-swivel assembly designed to protect the cannula and to provide the rat relative freedom of movement. The harnesses were fabricated from nylon hook and loop tape cemented to a metal plate to which spring wires (18-8 stainless steel), were attached to brass swivels. Each polyethylene cannula was channeled through a spring and connected through a swivel to a pressure transducer (Model P23Gb; Statham Instruments; Hato Rey, Puerto Rico) and an infusion pump (Sage model 234-7; Orion Research, Cambridge, Ma) by means of PE100 tubing. While on test, each rat received a continuous slow infusion of heparinized saline solution (approximately 400 I or 40 units of heparin per 24 hour period) to prevent clot formation. Additional "flushes" of the cannula with heparinized saline were carried out when the aortic pulse pressure (systolic minus diastolic) was less than 25 mm Hg.
CADCS: The pulsatile blood pressure and heart rate of each of 32 rats was monitored every minute by means of two in-laboratory microcomputers communicating directly with a data concentrator computer. The data were first stored on the data concentrator disk and then transferred to a magnetic tape for analysis and report generation by the main research computer. The overall scheme involved modulating the primary signal from the pressure transducer, generating the primary data set of the one-minute values for systolic, diastolic, and mean blood pressures and heart rate by the in-lab microcomputer and the storage, analysis, and report generation by the main research computer.
The transducers were connected to analog signal conditioning modules. The modules providing a regulated excitation voltage for the transducers, amplification as required to interface the microprocessors and an active low pass filter to compensate for the pressure wave form distortion produced by the flexible, fluid filled, narrow cannula.
The microcomputers (one for each of two groups of 16 rats) were connected to the input components through the module interface units, an analog-to-digital converter for the pressure wave form signal and the digital inputs for the dose and event marker switches. The microcomputer controlled the sequential acquisition of data from the modular interface units through an internal synchronous time-of-day clock/ time base generator. […]

Series [1] deals with Swiss-Webster male mice. As to the kind of experiment: Mouse Activity and Screen Test (MAST): inhibition of spontaneous locomotion (LI). Type of series: in vivo. As to conditions: Mus musculus, ip; read-out: MAST LI LAD. As for the experimental part:
(§1) Treatments are administered intraperitoneally one hour prior to testing. […] Compounds are dissolved or suspended in 0.2% Methocel. Control animals are injected with Methocel.
Immediately following the screen test, the final phase of testing is initiated by placing each group of three mice in one actophotometer (Life Sciences, 22, 1067-1076, 1978). The actophotometer consists of a cylindrical chamber whose center is occupied by another cylinder which contains the illumination for six photocells located on the perimeter of the chamber. Six light-beam interruptions equal one count. Locomotor activity is recorded by computer at ten minute intervals for 60 minutes. […]

Series [2] deals with Swiss-Webster male mice. As to the kind of experiment: Mouse Activity and Screen Test (MAST): screen test (ST). The format is in vivo. The note with it: lowest dose at which an A rating (60-100%) is achieved, screen test; intraperitoneally. As for the experimental part: as §1
The compounds are identified in the Examples.

The next series concerns rat heart. As to the kind of experiment: Coronary blood flow (PCS2A): isolated perfused heart. The note with it: isolated perfused rat heart. As for the experimental part: CORONARY BLOOD FLOW (PCS2A)
Male rats (400-600 gms) are pretreated with Na haparin 2000 units and anesthetized with Na pentobarbital (50 mg/kg) administered intraperitoneally. Once anesthetized, the rat heart is rapidly excised, the ascending aorta fitted to the aortic perfusion cannula, and […] with a ligature. The coronary arteries are perfused initially at a rate of about 15 ml/min for two to three minutes, afterwhich they are perfused at constant pressure of 70 mm Hg and temperature of 37°C. The electrocardiogram (ECG) is recorded using two platinum electrodes positioned at the base and apex of the left ventricle. A second heart is excised, cannulated, and perfused by the same method outlined above. Both hearts are tested in parallel. The standard physiological salt solution (PSS) is a modified Krebs-Hanseleit bicarbonate buffer of the following composition in mM concentration: NaCI, 127; NaHC03, 25; dextrose, 5.5; Na Pyruvate, 2.0: KCI, 4.7; MgS04, 1.1; KH 2P04, 1.2; CaCl2·2H2O, 2.5; CaNa2 EDTA, 0.05.
A 30-minute stabilization period is observed before starting the test protocol.
The microprocessor control system is a servo mechanism which permits coronary perfusion pressure (CPP) and drug concentration to be maintained constant independent of changes in coronary flow. The level at which CPP and drug concentration are maintained can be changed by commands communicated through the microprocessor keyboard. Dose-response curves are carried out by perfusing concentrated drug solution (DC) at rates proportional to total coronary flow (CFT). Drug concentrations are increased by proportionate increases in the rate of DC infusion over CFT via the microprocessor keyboard. The proportional flow rates for DC:CFT is about .0002:1 at the low end and .02: at the high end of the dose-response curve. Dose-response curves encompassing at least two log doses are carried out by preparing two DCs with a concentration difference of 1:100. Following the first dose range of two log doses, the DC are switched, proportional pumping rate adjusted, and the dose-response curve continued for another two log doses. The standard dose-response curve is carried out in one-half log dose increments starting at a subthreshold dose and ending at a dose which produces near maximal response in activity. Standard reference compounds are tested over the range of 10-^9 to 10-^6M.
Measurements are for heart rate (HR) and coronary flow (CF). Units are: HR, beats/minute (bpm) and CF, milliliters/minute (ml/min). HR is calculated from the ECG strip chart recording and CF is calculated by recording analog outputs from pumps 1 and 2. Outputs from pump #1 = CFT and the output from pump #2 = CF for heart B (CFg). CF for heart A (CFA) is calculated (CFT - CFB = CFA).
Using the above technique, the effects of the compound of Examples 1 and 2 are as follows: […]

Where [3] appears, read: coronary flow, read-out: PCS2A CF ED50.
Setting [4] is: heart rate, read-out: PCS2A HR ED50.

Data on 15 compounds can be found in patent EP0139358B1, “N6-substituted diarylalkyl adenosines, processes for their production and pharmaceutical compositions comprising the same” (priority 1983, dated 1985).

Like-named read-outs stand apart in the source and are kept apart here.

In the case of `Nc1nc(NCC(c2ccccc2)c2ccc(Cl)cc2)c2ncn([C@@H]3O[C@H](CO)[C@@H](O)[C@H]3O)c2n1` (stereo partly drawn) [Example 16, N^6-(2-(4-Chlorophenyl)-2-phenylethyl)-2-aminoadenosine], the minimal effective dose with conscious rat was over 10 mg/kg; in the series with Swiss-Webster male mice [1] it was 100 mg/kg. In addition, the “MAST ST LAD” value in the series with Swiss-Webster male mice [2] is over 100 mg/kg.

Regarding `Nc1nc(NCC(c2ccc(Cl)cc2)c2ccc(Cl)cc2)c2ncn([C@@H]3O[C@H](CO)[C@@H](O)[C@H]3O)c2n1` [Example 18, N^6-(2,2-Di-(4-chlorophenyl)ethyl)-2-aminoadenosine], the values for the minimal effective dose in the series with conscious rat and with Swiss-Webster male mice [1] were over 10 mg/kg and over 30 mg/kg, respectively. For the same compound, the “MAST ST LAD” value in the series on Swiss-Webster male mice [2] is on record as over 30 mg/kg.

For `Nc1nc(NCC(c2ccccc2)c2ccc(F)cc2)c2ncn([C@@H]3O[C@H](CO)[C@@H](O)[C@H]3O)c2n1` (stereo partly drawn) [Example 12, N^6-(2-(4-Fluorophenyl)-2-phenylethyl)-2-amino adenosine], the values for the minimal effective dose in the series on conscious rat and in the series on Swiss-Webster male mice [1] were 10 mg/kg and 30 mg/kg, respectively. Moreover, in the series with Swiss-Webster male mice [2], the “MAST ST LAD” value was over 100 mg/kg. The EC50 in the series on rat heart (setting [3]) and in the series with rat heart (setting [4]) was over 10 µM throughout.

As for `COC(=O)C(CNc1ncnc2c1ncn2[C@@H]1O[C@H](CO)[C@@H](O)[C@H]1O)(c1ccccc1)c1ccccc1` [Example 24, N^s-(2-Carbomethoxy-2,2-diphenylethyl)adenosine], in the series with Swiss-Webster male mice [1], the minimal effective dose amounted to 30 mg/kg. Also, the “MAST ST LAD” value in the series on Swiss-Webster male mice [2] was over 30 mg/kg. The EC50 in the series on rat heart (setting [3]) is over 3 µM; in the series with rat heart (setting [4]) it was 3 µM.

In the case of `OC[C@H]1O[C@@H](n2cnc3c(NCCCC(c4ccccc4)c4ccccc4)ncnc32)[C@H](O)[C@@H]1O` [Example 6, N^6-(4,4-Diphenylbutyl)adenosine], the minimal effective dose with conscious rat was over 30 mg/kg; in the series on Swiss-Webster male mice [1], 100 mg/kg. Also, the “MAST ST LAD” value in the series with Swiss-Webster male mice [2] is given as over 100 mg/kg. Moreover, the EC50 in the series on rat heart (setting [3]) is 0.014 µM; in the series with rat heart (setting [4]) it was over 1 µM.

As to `Nc1nc(NCC(O)(c2ccccc2)c2ccccc2)c2ncn([C@@H]3O[C@H](CO)[C@@H](O)[C@H]3O)c2n1` [Example 23, N^6-(2,2-Diphenyl-2-hydroxyethyl)-2-aminoadenosine], the minimal effective dose in the series with conscious rat is over 10 mg/kg; with Swiss-Webster male mice [1] it was 3 mg/kg. For the same compound, the “MAST ST LAD” value with Swiss-Webster male mice [2] is over 100 mg/kg. Also, the EC50 in the series on rat heart (setting [3]) was over 3 µM; with rat heart (setting [4]), about 1 µM.

Regarding `CC1(C)O[C@@H]2[C@H](O1)[C@@H](CO)O[C@H]2n1cnc2c(NCC(c3ccccc3)c3ccccc3)ncnc21` [Example 29, 2',3'-0-Isopropylidene-N6-(2,2-diphenylethyl)adenosine], the minimal effective dose with conscious rat was determined as 10 mg/kg; with Swiss-Webster male mice [1], 30 mg/kg. Further, the “MAST ST LAD” value in the series on Swiss-Webster male mice [2] is given as over 100 mg/kg.

With `COc1ccc(C(CNc2ncnc3c2ncn3[C@@H]2O[C@H](CO)[C@@H](O)[C@H]2O)c2ccccc2)cc1` (stereo partly drawn) [Example 19, N^6-(2-(4-Methoxyphenyl)-2-phenylethyl)adenosine], the minimal effective dose with conscious rat and with Swiss-Webster male mice [1] was 10 mg/kg throughout. The “MAST ST LAD” value in the series on Swiss-Webster male mice [2] turned out to be 30 mg/kg. For the same compound, the EC50 with rat heart (setting [3]) is 0.03 µM; with rat heart (setting [4]), over 3 µM.

With `O=C(OC[C@H]1O[C@@H](n2cnc3c(NCC(c4ccccc4)c4ccccc4)ncnc32)[C@H](OC(=O)c2ccccc2)[C@@H]1OC(=O)c1ccccc1)c1ccccc1` [Example 26, 2',3',5'-Tri-0-benzoyl-N^6-(2,2-diphenylethyl)adenosine], the minimal effective dose in the series with conscious rat and in the series on Swiss-Webster male mice [1] was 10 mg/kg in each case. In addition, the “MAST ST LAD” value with Swiss-Webster male mice [2] was over 100 mg/kg.

For `OC[C@H]1O[C@@H](n2cnc3c(NCC(c4ccc(F)cc4)c4ccc(F)cc4)ncnc32)[C@H](O)[C@@H]1O` [Example 13, ^N'-(^2,2-Di-(4-fluorophenyl)ethyl)adenosine], the minimal effective dose in the series on conscious rat amounted to 10 mg/kg; in the series on Swiss-Webster male mice [1] it was 3 mg/kg. The “MAST ST LAD” value with Swiss-Webster male mice [2] is on record as over 100 mg/kg.

For `Cc1cccc(C(CNc2ncnc3c2ncn3[C@@H]2O[C@H](CO)[C@@H](O)[C@H]2O)c2ccccc2)c1` (stereo partly drawn) [Example 9, N^6-(2-(3-Methylphenyl)-2-phenylethyl)adenosine], the minimal effective dose in the series on Swiss-Webster male mice [1] was at most 10 mg/kg. The “MAST ST LAD” value with Swiss-Webster male mice [2] is listed as 100 mg/kg.

On to `O=P(O)(O)OC[C@H]1O[C@@H](n2cnc3c(NCC(c4ccccc4)c4ccccc4)ncnc32)[C@H](O)[C@@H]1O` [Example 28, N^6-(2,2-Diphenylethyl)adenosine-5'-phosphate], for which, in the series on Swiss-Webster male mice [1], the minimal effective dose is at most 3 mg/kg. Further, the “MAST ST LAD” value in the series on Swiss-Webster male mice [2] was over 30 mg/kg.

As for `OC[C@H]1O[C@@H](n2cnc3c(NCC(c4ccccc4)c4cccc(Cl)c4)ncnc32)[C@H](O)[C@@H]1O` (stereo partly drawn) [Example 14, N^6-(2-(3-Chlorophenyl)-2-phenylethyl)adenosine], the minimal effective dose with Swiss-Webster male mice [1] turned out to be 1 mg/kg. Besides, the “MAST ST LAD” value in the series with Swiss-Webster male mice [2] is over 100 mg/kg.

On to `OC[C@H]1O[C@@H](n2cnc3c(NCC(c4ccc(Cl)cc4)c4ccc(Cl)cc4)ncnc32)[C@H](O)[C@@H]1O` [Example 17, N^6-(2,2-Di(4-chlorophenyl)ethyl)adenosine], for which, in the series on Swiss-Webster male mice [1], the minimal effective dose stood at 100 mg/kg. The “MAST ST LAD” value in the series on Swiss-Webster male mice [2] is recorded as over 100 mg/kg. Besides, the EC50 in the series on rat heart (setting [3]) and with rat heart (setting [4]) was over 3 µM in each case.

On to `CC(=O)OC[C@H]1O[C@@H](n2cnc3c(NCC(c4ccccc4)c4ccccc4)nc(Cl)nc32)[C@H](OC(C)=O)[C@@H]1OC(C)=O` [Example 27, 2',3',5'-Tri-O-acetyl-N^6-(2,2-diphenylethyl)-2-chloroadenosine], for which the minimal effective dose in the series on Swiss-Webster male mice [1] amounted to 30 mg/kg. Also, the “MAST ST LAD” value with Swiss-Webster male mice [2] is on record as over 100 mg/kg.
